This is an account of results in patent publication US9549914B2, “Treatment of human cytomegalovirus by modulating Wnt” (priority 2014, dated 2017).

Data set [1] deals with HCMV proteins (IE1, IE2, UL44, pp65). In words: Western blot of HCMV proteins in infected HFFs. The class given is cell-based, Human Cytomegalovirus (HCMV). The procedure: (§1) FIG. 5: Effect of Nigericin and GCV on expression of HCMV and Wnt/β-catenin signaling proteins. A. Expression of HCMV proteins in infected HFFs treated with nigericin (100 nM) and GCV (10 μM). Compounds were added after virus adsorption and cell lysates were collected for western blot at 24, 48 and 72 hpi. Control-no treatment. B. Expression of Wnt-signaling proteins was determined in non-infected (Mock), and HCMV-infected HFFs treated with nigericin (100 nM) and GCV (10 μM) at indicated time points. Representative data from three independent experiments are shown.
(§2) Cell lysates were quantified for protein content using bicinchoninic acid (BCA) protein assay kit (Pierce Chemical, Rockford, Ill.). Equivalent amount of proteins were mixed with an equal volume of 2× sample buffer (125 mM Tris-HCL, pH 6.8, 4% SDS, 20% glycerol and 5% β-mercaptoethanol) and boiled at 100° C. for 10 min (except for Wnt and pWnt detection for which samples were not boiled). Denatured proteins were resolved in Tris-glycine polyacrylamide gels (10-12%) and transferred to polyvinylidine difluoride (PVDF) membranes (Bio-Rad Laboratories, Hercules, Calif.) by electroblotting. Membranes were incubated in blocking solution [5% non-fat dry milk and 0.1% Tween-20 in PBS (PBST)] for 1 hr, washed three times with PBST, and incubated with appropriately diluted primary antibodies at 4° C. overnight. Membranes were washed with PBST and incubated with horseradish peroxidase-conjugated secondary antibodies in PBST for 1 hr at room temperature. Following washing with PBST, protein bands were visualized by chemiluminescence using SuperSignal West Dura and Pico reagents (Pierce Chemical, Rockford, Ill.). The following antibodies were used for detection of CMV proteins: mouse anti-IE1 and IE2, (MAb810); mouse anti-beta-actin antibody (Millipore, Billerica, Mass.); mouse anti-UL44 (Santa Cruz biotechnology Santa Cruz, Calif.); mouse anti-pp65 (Vector laboratories, Burlingame, Calif.); horseradish peroxidase (HRP)-conjugated anti-rabbit IgG (Cell Signaling Technology, Beverly, Mass.); and HRP-conjugated anti-mouse IgG, (GE Healthcare, Waukesha, Wis.). The following antibodies were used for detection of proteins in the Wnt pathway: anti-Wnt5a/b, Wnt, phospho-Wnt, Dvl2, Dvl3 and axin1 (Cell Signaling), β-catenin (E-5) (Santa Cruz biotechnology).
A general note: Immunoblotting shows a protein as a band on a membrane.

In data set [2] the test system is luciferase HSV1-KOS/Dlux/oriS. In words: HSV1-KOS/Dlux/oriS yield reduction assay in HFFs. The class given is cell-based. Conditions: Human alphaherpesvirus 1, 16 h, read-out: HSV1 EC50 (μM) Yield Reduction (HFFs).
The test system of data set [3] is HCMV. In words: Reversibility of HCMV inhibition, real-time PCR in supernatants. It is filed as cell-based, Human Cytomegalovirus (HCMV). Conditions: treated 1, 2 or 3 days, then fresh media; HCMV DNA in supernatants at day 6 post infection. An excerpt: FIG. 4: Effects of monensin, nigericin, salinomycin and GCV on replication characteristics. A. Reversibility of HCMV replication: Compounds were present in HCMV-infected HFFs at the indicated intervals in days. Virus DNA was quantified by real-time PCR in supernatants at 6 days post infection. Data represent mean values (±SD) of triplicate determinations from two independent experiments. B. Inhibition of DNA replication, pp28 expression and virus DNA yield: DNA replication was quantified by real-time PCR in cells collected 48 hpi. Pp28-luciferase activity was measured in cell lysates collected at 72 hpi. Virus DNA yield was measured by real-time PCR in supernatants of infected cells collected at 96 hpi. The concentration of compounds was: 0.1 μM for monensin and nigericin, 1 μM for salinomycin and 10 μM for GCV. Data represent mean values (±SD) of triplicate determinations from two independent experiments.
The quantitative CMV real-time PCR assay is based on detection of a 151 bp region from the highly conserved US17 gene (16). The limit of detection of the assay is 100 copies/mL (3.0 copies/reaction), and the measurable range is 2.4-8.0 log10 copies/mL. The PCR was performed using a total reaction volume of 50 μL, including TaqMan 2× Universal PCR Master Mix (Applied Biosystems, Foster City, Calif.), primers (300 nM final concentration), FAM-labeled probe (200 nM final concentration), dH2O, and template (10 μl). Amplification was performed on a 7500 Real-Time PCR System (Applied Biosystems, Foster City, Calif.). PCR conditions were: 50° C. for 2 min, 95° C. for 10 min, 40 cycles of 95° C. for 15 s and 60° C. for 60 s. Quantification standards were prepared by cloning the US17 amplicon in the pCR®2.1-TOPO® plasmid vector (Invitrogen, Carlsbad, Calif.). Serial 10-fold dilutions of plasmid from 7.0 to 1.0 log10 copies/reaction were included with each assay and used to establish a standard curve. The slope and R^2 of the standard curve were −3.3±0.1 and >0.990, respectively. Assay controls included quantified CMV AD 169 DNA (Advanced Biotechnologies Inc.) and quantified Towne CMV at 3.0 and 5.0 log10 copies/mL. Quantitative CMV data were expressed as viral DNA copies per milliliter. The real-time PCR was used for quantification of HCMV replication in cell lysates at 48 hpi, virus DNA yield in supernatants at 96 hpi and for a reversibility assay (14, 16).
To test whether HCMV inhibition by monensin, nigericin and salinomycin was reversible, infected HFFs were treated for 1, 2, or 3 days followed by removal of the media containing the compounds, and adding fresh media until 6 days post infection. HCMV DNA was quantified in supernatants of infected cells at day 6 post infection by real-time PCR.
(In general: Quantitative PCR measures a nucleic acid by following its amplification.)

Data set [4] has as its system Wnt/β-catenin signaling proteins. Briefly: Western blot of Wnt-signaling proteins in non-infected and HCMV-infected HFFs. The class given is cell-based, Human. Conditions: 100 nM. The procedure:
as §1, §2

A further data set in a line: in vitro. The settings on record: human.
Data set [5] deals with HCMV. In words: HCMV yield reduction (infectious virus released into medium, plaques). The settings on record: infected HFFs treated at 0.1 μM. It is filed as cell-based, Human Cytomegalovirus (HCMV).
In another data set the test system is HSV2 clinical isolates. Briefly: HSV2 plaque assay in Vero cells. The class given is cell-based. The settings on record: Human alphaherpesvirus 2, 48 h; Vero cells, 200 PFU/well, plaques counted after 2 days; read-out: HSV2 EC50 (μM) Plaque Number (Vero).
The mark [6] stands for this setting: non-infected and HCMV-infected HFFs, all time points (24, 48, 72 hpi).

Experimental for in vitro: Cell viability was determined using a colorimetric MTT cell proliferation assay following manufacturer's instructions (Sigma-Aldrich, St. Louis, Mo.). HFFs were treated with varying concentrations of monensin, nigericin, and salinomycin and incubated at 37° C. for 3 days. After the addition of 20 μl/well of MTT (3-(4,5-Dimethyl-2-thiazolyl)-2,5-diphenyl-2H-tetrazolim bromide) (5 mg/ml in PBS), and shaking at 150 rpm for 5 minutes the plates were incubated at 37° C. for 3 hours. Conversion of yellow solution into dark blue formazan by mitochondrial dehydrogenases of living cells was quantified by measuring absorbance at 570 nm. Viable cells in culture medium containing vehicle alone (0.1% DMSO) were referred to as 100% cell viability. For each cell type used for virus infection and drug treatment, the MTT assay was performed at the same time points as the antiviral assay.

Regarding `CO[C@@H]1C[C@@H](C[C@H]2CC[C@H](C)[C@H]([C@@H](C)C(=O)O)O2)O[C@]2(O[C@](C)([C@H]3CC[C@@](C)([C@@H]4O[C@@H]([C@H]5O[C@@](O)(CO)[C@H](C)C[C@@H]5C)C[C@@H]4C)O3)C[C@H]2C)[C@@H]1C` [Nigericin, nigericin], the “expression of the late HCMV gene pp65” value in data set [1] (100 nM) is listed as “significant inhibition”. Further, in data set [1] (100 nM, 24, 48 and 72 hpi), the IE1 expression result was “no obvious inhibition”, the IE2 expression result is given as “major inhibition” and the UL44 expression result is recorded as “major inhibition”. Also, in data set [2], the EC50 (usually the midpoint of the concentration-response curve) stood at 0.08 µM. Also, the “reversibility of HCMV inhibition” value with HCMV [3] is reported as “weak irreversible inhibition”. In addition, the β-catenin levels result in data set [4] (effect increased from 24 to 48 and 72 hpi) is recorded as “significant decrease”. Also, in data set [4] (setting [6]), the “expression of Wnt” value is “decreased expression”, the “expression of Wnt 5a/b” value is recorded as “decreased expression”, the “expression of axin 1” value was “decreased expression” and the “expression of pWnt” value is listed as “decreased expression”. For the same molecule, the CC50 at 3 days in “in vitro” came to 3.35 ± 0.77 µM. In addition, in the data set on HCMV [5], the “infectious virus released into the medium (yield reduction), plaques” value is reported as “complete absence of plaques”. Besides, the EC50 in the data set with HSV2 clinical isolates turned out to be 0.16 ± 0.05 µM.
